Where no end group is shown, it is not given here.
What was measured:
[1] = tested on: 5-HT fibers; test: Morphine-induced scratching after 5,7-DHT; type: in vivo, mice; conditions: vs saline vehicle
Description: Repeated measures analysis of variance (ANOVA); *P<0.05, n=5-11.

[2] = tested on: NMBR/GRPR; type: in vivo; conditions: NMBR/GRPR double knockout mice; for response to i.d. pruritogens: i.d. in 50 μl; for response to intrathecal bombesin-like peptides: GRP (1 nM), Bombesin (0.05 nM), NMB (2 nM)
Experimental: FIG. 44 depicts the itch behavior of NMBR/GRPR double knockout mice in response to 3 different bombesin-like peptides. […] GKO, GRPR mutant mice; DKO, NMBR/GRPR double KO mice.
(A), (C), (E), (G) and (I) are time course curve, while (B), (D), (F), (H) and (J) represent the total value comparisons from the same experiment. *p<0.05, **p<0.01; One-way ANOVA followed by Newman-Keuls post hoc test was used in all statistical analysis.
Histamine was injected i.d. in 50 μl at 20 μg/mouse. Compound 48/80 was injected i.d. in 50 μl at 20 μg/mouse. ET-1 was injected i.d. in 50 μl at 1 ng/mouse. […] Serotonin (5-HT) was injected i.d. in 50 μl at 1 1 nmol/μl.

[3] = tested on: GRPR; type: in vivo; conditions: GRPR mutant mice compared to wild-type mice
Description: All data are presented as means±s.e.m.
FIG. 17A-C depicts scratching behavior induced by i.d. injection of histamine, endothelin-1 or 5-HT in GRPR mutant (black bars) and wild-type mice (white bars).
To ascertain whether GRPR is required for itch sensation, we studied the effects of several pruritogenic agents in GRPR mutant mice and wild-type mice.

[4] = molecular target: T1, NMBR (Mus musculus, UniProt O54799); test: Effect of NMBR antagonist on NMB-, GRP- and chloroquine-evoked scratching; type: in vivo, mice
T1 construct: NMBR is expressed in the most superficial layer of the dorsal spinal cord; endogenous in cells; host or cells: living wild-type mice, spinal cord (intrathecal injection)
T1 sequence (O54799 1-390): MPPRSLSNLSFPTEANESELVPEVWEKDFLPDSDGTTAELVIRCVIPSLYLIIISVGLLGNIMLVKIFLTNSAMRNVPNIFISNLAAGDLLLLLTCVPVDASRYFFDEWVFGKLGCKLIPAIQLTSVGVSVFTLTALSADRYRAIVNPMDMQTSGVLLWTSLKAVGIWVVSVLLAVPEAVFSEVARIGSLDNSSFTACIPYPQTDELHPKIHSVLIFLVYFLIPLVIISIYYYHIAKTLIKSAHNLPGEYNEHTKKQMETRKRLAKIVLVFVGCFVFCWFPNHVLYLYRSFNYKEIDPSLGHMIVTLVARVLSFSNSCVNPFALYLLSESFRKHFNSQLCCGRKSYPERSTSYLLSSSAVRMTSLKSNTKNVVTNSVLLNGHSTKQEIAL
Experimental: (B) Dose response experiment depicting the NMB-evoked scratching behavior in wild type mice measured over 30 minutes after injection with 1 and 2 nmol of PD168268.
(A) Number of scratches over time. (B) Comparison of cumulative number of scratches of the results shown in (A). PD168268 was injected at 2 nmol/mouse 10 min before GRP 1 nmol/mouse. p<0.01 (p=0.0072), t test, when the data in first 5 min was compared.
(A) Number of scratches over time. (B) Comparison of cumulative number of scratches of the results shown in (A). […] One-way ANOVA followed by Newman-Keuls post hoc test.

[5] = molecular target: T2, VR1 vanilloid receptor (Mus musculus, UniProt Q704Y3); test: Depletion of primary fibers by intrathecal resiniferatoxin (immunocytochemistry); type: in vivo, mice; parameters: An approximate 80% of GRP+ neurons express TRPV1, a vanilloid receptor important for detecting thermal and chemical stimuli in the DRGs; endogenous in cells; host or cells: living mice, TRPV1+ primary afferent fibers (intrathecal RTX)
T2 sequence (Q704Y3 whole entry): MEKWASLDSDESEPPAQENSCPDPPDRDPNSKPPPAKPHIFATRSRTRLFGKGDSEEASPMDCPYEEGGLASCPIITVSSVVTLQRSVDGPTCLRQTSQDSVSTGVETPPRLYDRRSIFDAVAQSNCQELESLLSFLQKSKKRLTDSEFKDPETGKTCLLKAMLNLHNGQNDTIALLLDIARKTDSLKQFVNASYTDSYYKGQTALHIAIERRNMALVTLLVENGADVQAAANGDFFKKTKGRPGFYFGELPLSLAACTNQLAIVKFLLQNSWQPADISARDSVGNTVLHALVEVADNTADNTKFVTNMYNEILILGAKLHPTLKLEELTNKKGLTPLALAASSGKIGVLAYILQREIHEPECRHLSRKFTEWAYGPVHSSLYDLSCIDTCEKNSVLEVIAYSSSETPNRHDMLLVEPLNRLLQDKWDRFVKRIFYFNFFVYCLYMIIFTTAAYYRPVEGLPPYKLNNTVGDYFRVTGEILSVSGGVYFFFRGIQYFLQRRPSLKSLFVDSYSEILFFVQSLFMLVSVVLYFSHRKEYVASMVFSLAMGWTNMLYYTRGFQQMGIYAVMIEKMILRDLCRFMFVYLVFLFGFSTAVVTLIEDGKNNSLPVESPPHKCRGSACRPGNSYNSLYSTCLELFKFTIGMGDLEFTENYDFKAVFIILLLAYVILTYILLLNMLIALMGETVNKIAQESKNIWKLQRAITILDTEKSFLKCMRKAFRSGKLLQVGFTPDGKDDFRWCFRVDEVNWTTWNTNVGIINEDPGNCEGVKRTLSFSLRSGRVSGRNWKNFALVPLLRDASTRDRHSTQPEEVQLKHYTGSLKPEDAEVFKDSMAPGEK
Description: FIG. 32A-L depicts micrographs showing that peptidergic but not non-peptidergic fibers were depleted by resiniferatoxin (RTX) treatment. […] The IB4 positive non-peptidergic fibers remain the same after RTX treatment (C) compared with the control group (D). […] GRP+ fibers are almost lost in the RTX treated group (I) compared with the control group (J). TRPV1 staining is lost after RTX treatment (K) compared to the control group (L).
An approximate 80% of GRP+ neurons express TRPV1, a vanilloid receptor important for detecting thermal and chemical stimuli in the DRGs (FIG. 31). […] Non-peptidergic primary fibers labeled by IB4-FITC are normal (FIG. 32C, D). […] Motor function is not affected by the depletion of TRPV1+ primary fibers (FIG. 33B).
Mice were given resiniferatoxin (Sigma, 25 ng/5 ul) or vehicle intrathecally under isoflurane-induced anesthesia. The behavior was tested 3-5 days later.

[6] = molecular target: T2, VR1 vanilloid receptor
[7] = molecular target: T3, GRPR (Mus musculus, UniProt P21729); test: Scratching behavior after intrathecal injection of GRPR agonist GRP18-27; type: in vivo, mice
T3 construct: GRP acts through spinal GRPR to mediate the transmission of information that drives scratching behavior; endogenous in cells; host or cells: living mice (C57BL/6J / wild-type littermates), spinal dorsal horn neurons reached by intrathecal injection
T3 sequence (P21729 whole entry): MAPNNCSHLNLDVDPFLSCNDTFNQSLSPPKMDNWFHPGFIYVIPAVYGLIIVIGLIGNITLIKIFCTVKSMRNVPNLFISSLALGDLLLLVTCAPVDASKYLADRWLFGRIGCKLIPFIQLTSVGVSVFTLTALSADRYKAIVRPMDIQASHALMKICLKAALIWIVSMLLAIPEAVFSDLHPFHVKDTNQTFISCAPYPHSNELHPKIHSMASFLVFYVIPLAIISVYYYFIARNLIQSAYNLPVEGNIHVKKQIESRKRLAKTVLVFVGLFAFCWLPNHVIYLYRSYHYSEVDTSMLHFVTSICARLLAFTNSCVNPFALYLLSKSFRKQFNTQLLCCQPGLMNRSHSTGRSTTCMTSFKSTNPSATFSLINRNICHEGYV
Experimental: (§1) FIG. 7A-E depicts graphs showing the effect of GRPR agonist and antagonist on scratching behavior. (A) Scratching behavior is monitored after intrathecal (i.t.) injection of GRP18-27 (0.03, 0.1 or 1.0 nmol/5 μl). GRP18-27 induced dose-dependent scratching behavior in wild-type mice (n=7; open circles). […] ANOVA; **P<0.01. […] ANOVA; *P<0.05.
(§2) To determine whether an activation of GRPR in the spinal cord may facilitate the transmission of itch signals, which would subsequently result in increased scratching behavior, the GRPR agonist GRP18-27 was intrathecally administered (Ladenheim et al., 1996).

[8] = molecular target: T3, GRPR; test: Scratching induced by i.d. pruritogenic agents after i.t. GRPR antagonist; type: in vivo, mice; conditions: i.t. antagonist 10 min before i.d. injection of each pruritogenic agent; vs saline control
[9] = molecular target: T3, GRPR; type: in vivo, mice
[10] = molecular target: T3, GRPR; parameters: species or system mice; conditions: in vivo
[11] = tested on: GRPR; test: Scratching behavior after intrathecal injection of GRPR agonist GRP18-27; type: in vivo, mice; conditions: GRPR mutant mice compared with wild-type
Experimental: as §1, §2

[12] = three days after i.t. 25 ng/5 μl
[13] = antagonist 1.0 nmol i.t. vs vehicle

NCCc1c[nH]c2c(O)cc(O)cc12 [5,7-DHT]
morphine-induced scratching behavior [1]: reduces, but does not eliminate scratching behavior

NCCc1c[nH]c2ccc(O)cc12 [5-HT, serotonin]
response to i.d. pruritogens [2]: deficits | scratching behavior induced by i.d. injection, GRPR mutant vs wild-type mice [3]: normal scratching behaviors

C[C@@](Cc1c[nH]c2ccccc12)(NC(=O)Nc1ccc([N+](=O)[O-])cc1)C(=O)NCC1(c2ccccn2)CCCCC1 [PD168268]
GRP-induced scratching behaviors ([4]; 2 nmol/mouse 10 min before GRP 1 nmol/mouse): inhibited | NMB-induced scratching behaviors ([4]; i.t. 1 or 2 nM/mouse 10 minutes before 2 nM/mouse of NMB, wild type mice): inhibited | chloroquine-induced scratching behaviors ([4]; i.t. 10 minutes before i.d. chloroquine 200 μg/mouse in 50 μL): inhibited

CCN(CC)CCCC(C)Nc1ccnc2cc(Cl)ccc12 (stereo not shown) [chloroquine]
response to i.d. pruritogens [2]: deficits

NCCc1c[nH]cn1 [histamine]
response to i.d. pruritogens [2]: deficits | scratching behavior induced by i.d. injection, GRPR mutant vs wild-type mice [3]: either not significantly affected or modestly reduced

C=C(C)[C@]12C[C@@H](C)[C@@]34O[C@](Cc5ccccc5)(O[C@@H]1[C@@H]3C=C(COC(=O)Cc1ccc(O)c(OC)c1)C[C@]1(O)C(=O)C(C)=C[C@@H]41)O2 [resiniferatoxin]
GRPR expression ([5]; after RTX treatment): remains normal | GRP+ fibers [5, 12]: almost depleted | PKCγ (LIIi layer) [5, 12]: remains normal | TRPV1 signal [5, 12]: almost lost | non-peptidergic primary fibers labeled by IB4-FITC [5, 12]: normal | peptidergic fibers labeled by CGRP [5, 12]: largely diminished | motor function (rotarod) ([6]; after RTX treatment): not affected | tail-flick latency ([6]; after RTX treatment): significantly increased | morphine-induced scratching behavior ([6]; mouse, in vivo): significantly reduced

D-Phe-6-Bn(6-13)OMe
GRP18-27-induced scratching behavior ([7]; i.t. antagonist 1.0 nmol/2.5 μl, GRP18-27 1.0 nmol/2.5 μl, vs vehicle): significantly inhibited | scratching behavior induced by i.d. pruritogenic agents [8]: significant reduction of the scratching behavior | mechanical thresholds [9, 13]: not significantly affected | tailflick latency [9, 13]: comparable | analgesic effect of intrathecal morphine ([9]; morphine 0.3 nmol/5 μl, antagonist 1.0 nmol, vs vehicle): not significantly affected | scratching induced by intrathecal morphine [10]: significantly blocked

GRP18-27: GRPR agonist, intrathecally administered
scratching behavior after i.t. GRP18-27 ([7]; wild-type mice, i.t. 0.03, 0.1 or 1.0 nmol/5 μl): increased scratching behavior was found in a dose-dependent manner | number of scratching behaviors after i.t. GRP18-27 [11]: significantly lower

GRP: gastrin-releasing peptide, bombesin-like peptide given intrathecally (VPLPAGGGTVLTKMYPRGNHWAVGHLM; ends and bridges not checked; UniProt P07492 24-50, looked up)
response to intrathecal bombesin-like peptides [2]: deficits

SLIGRL-NH2
scratching behavior induced by i.d. injection, GRPR mutant vs wild-type mice [3]: significantly reduced

endothelin-1: exerts its pruritic effect through ETA receptors
response to i.d. pruritogens [2]: deficits | scratching behavior induced by i.d. injection, GRPR mutant vs wild-type mice [3]: normal scratching behaviors

neuromedin B [NMB]
response to intrathecal bombesin-like peptides [2]: deficits

From patent US9636379B2, “Compositions and methods for treating pruritus” (Washington University, priority 2007, dated 2017)
